Values quoted from earlier work, collected in patent US11103587B2, “Multiple oligonucleotide moieties on peptide carrier” (Genzyme Corporation, priority 2014, dated 2021).

What was measured:
[1] = system: exon 23 of the mRNA encoding for dystrophin; conditions: mdx mouse, cited from earlier work
[2] = mice; cited from earlier work

Sequence: GGCCAAACCTCGGCTTACCTGAAAT (PMO backbone, chemistry not fully specified) [PMO23, PMO designed to skip exon 23 of the mRNA encoding for dystrophin]
- skipping of exon 23 in cardiac muscle ([1]; cardiac muscle): does not effect exon 23 skipping in cardiac muscle
- skipping of exon 23 in skeletal muscle ([1]; skeletal muscle): < 15%
- amount administered without any noticeable toxic effects [2]: ≤ 250 mg/kg
